Test results: ChEMBL document CHEMBL1201862, “PubChem BioAssay data set” (2004)
The source made the active and inactive calls.

Key:
Estrogen receptor beta = Estrogen receptor beta (Homo sapiens, UniProt Q92731);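 further: recombinant ER-beta bound to coactivator SRC1 peptide in presence of estradiol agonist; inhibitors block coactivator peptide binding and lower the FRET signal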
Escherichia coli [1] = assay: microbe, parasite or virus in culture
[2] = A Cell Based Secondary Assay To Explore Cytotoxicity of Compounds that Sensitize Mycobacterium Tuberculosis to Beta-Lactam Antibiotics.; assay type: functional
fMet-Leu-Phe receptor = target: T1, fMet-Leu-Phe receptor (Homo sapiens, UniProt P21462); assay: formyl peptide receptor binders – dose response (AID 519); assay type: functional
T1 sequence (P21462 whole entry): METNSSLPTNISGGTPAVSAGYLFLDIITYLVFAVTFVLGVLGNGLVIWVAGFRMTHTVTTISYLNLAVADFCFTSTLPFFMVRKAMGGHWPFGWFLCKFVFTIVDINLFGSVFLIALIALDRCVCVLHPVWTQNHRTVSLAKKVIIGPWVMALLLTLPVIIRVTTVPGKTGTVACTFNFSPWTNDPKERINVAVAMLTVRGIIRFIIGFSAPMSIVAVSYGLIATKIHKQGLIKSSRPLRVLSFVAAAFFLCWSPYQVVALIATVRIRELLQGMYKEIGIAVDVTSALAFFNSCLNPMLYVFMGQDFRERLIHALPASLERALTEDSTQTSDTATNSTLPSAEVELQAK

Protein RecA = target: T2, Protein RecA (Mycobacterium tuberculosis, UniProt P9WHJ3); assay: Fluorescence Cell-Free Homogeneous Dose Retest to Identify Inhibitors of RecA-Intein Splicing Activity. [Related pubchem assays (depositor defined):AID2097, AID2223, AID489010, AID492950]; assay type: functional
T2 sequence (P9WHJ3 whole entry): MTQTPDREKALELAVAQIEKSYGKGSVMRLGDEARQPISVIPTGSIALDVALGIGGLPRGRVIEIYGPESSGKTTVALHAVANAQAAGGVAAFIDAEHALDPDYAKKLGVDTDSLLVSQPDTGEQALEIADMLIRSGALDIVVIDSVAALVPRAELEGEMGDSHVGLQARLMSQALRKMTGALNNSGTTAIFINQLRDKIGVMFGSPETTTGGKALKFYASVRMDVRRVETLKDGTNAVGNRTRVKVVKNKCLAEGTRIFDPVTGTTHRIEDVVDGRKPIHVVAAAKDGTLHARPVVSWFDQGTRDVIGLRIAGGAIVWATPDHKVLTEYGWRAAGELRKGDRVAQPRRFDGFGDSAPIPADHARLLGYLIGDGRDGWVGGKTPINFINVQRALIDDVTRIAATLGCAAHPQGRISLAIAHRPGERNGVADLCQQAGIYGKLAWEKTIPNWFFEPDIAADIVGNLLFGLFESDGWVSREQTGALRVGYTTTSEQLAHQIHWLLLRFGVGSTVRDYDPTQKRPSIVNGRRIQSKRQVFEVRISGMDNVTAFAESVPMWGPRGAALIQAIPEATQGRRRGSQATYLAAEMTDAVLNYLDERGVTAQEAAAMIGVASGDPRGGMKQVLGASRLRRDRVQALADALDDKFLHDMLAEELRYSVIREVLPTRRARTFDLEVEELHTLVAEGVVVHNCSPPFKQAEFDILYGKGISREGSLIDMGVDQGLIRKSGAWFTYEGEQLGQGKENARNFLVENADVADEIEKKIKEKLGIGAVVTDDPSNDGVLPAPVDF

[3] = target: Eukaryotic translation initiation factor 4E (Mus musculus, UniProt P63073); assay: blockers of eIF4G binding by eIF4E – biochemical, TR-FRET, dose response (AID 855); assay type: functional;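 further: potency for disrupting eIF4E binding to eIF4GI seen as loss of FRET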
Eukaryotic translation initiation factor 4E, sequence (P63073 whole entry): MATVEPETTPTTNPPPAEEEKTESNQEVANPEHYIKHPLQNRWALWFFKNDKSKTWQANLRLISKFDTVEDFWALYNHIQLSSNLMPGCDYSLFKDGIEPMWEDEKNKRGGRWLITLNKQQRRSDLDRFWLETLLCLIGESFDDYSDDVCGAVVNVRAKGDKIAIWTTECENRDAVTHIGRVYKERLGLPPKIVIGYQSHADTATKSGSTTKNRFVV

[4] = target: T3, Replicative DNA helicase DnaB (Mycobacterium tuberculosis, UniProt P9WMR3); assay: DnaB intein splicing inhibitors, dose response, biochemical, cell-free fluorescence (AID 449749); assay type: functional
T3 sequence (P9WMR3 whole entry): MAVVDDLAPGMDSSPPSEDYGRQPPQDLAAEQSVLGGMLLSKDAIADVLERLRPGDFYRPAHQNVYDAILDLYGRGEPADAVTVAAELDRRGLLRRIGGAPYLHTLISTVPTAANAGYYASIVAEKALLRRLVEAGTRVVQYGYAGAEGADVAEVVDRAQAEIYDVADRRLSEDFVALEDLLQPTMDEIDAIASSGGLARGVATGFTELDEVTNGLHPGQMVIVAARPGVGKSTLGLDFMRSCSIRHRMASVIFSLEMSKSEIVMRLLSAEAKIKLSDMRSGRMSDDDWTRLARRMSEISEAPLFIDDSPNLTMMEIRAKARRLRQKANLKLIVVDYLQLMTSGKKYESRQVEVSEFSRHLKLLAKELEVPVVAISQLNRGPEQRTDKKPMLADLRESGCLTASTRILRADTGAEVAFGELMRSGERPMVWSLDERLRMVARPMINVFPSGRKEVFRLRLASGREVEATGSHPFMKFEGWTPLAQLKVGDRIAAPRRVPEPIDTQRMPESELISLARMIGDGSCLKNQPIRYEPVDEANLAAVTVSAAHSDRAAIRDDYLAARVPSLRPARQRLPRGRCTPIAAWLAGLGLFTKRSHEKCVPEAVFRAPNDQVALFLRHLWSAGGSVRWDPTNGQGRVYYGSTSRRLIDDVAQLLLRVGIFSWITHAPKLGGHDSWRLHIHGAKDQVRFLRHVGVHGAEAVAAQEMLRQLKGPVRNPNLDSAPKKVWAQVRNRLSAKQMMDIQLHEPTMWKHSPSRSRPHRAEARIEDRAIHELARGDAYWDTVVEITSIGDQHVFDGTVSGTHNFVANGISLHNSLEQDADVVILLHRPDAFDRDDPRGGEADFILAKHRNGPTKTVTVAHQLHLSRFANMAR

Escherichia coli [5] = assay: microbe, parasite or virus in culture; remark: listed apart in the source
Large T antigen = Large T antigen (Simian virus 40, UniProt P03070); assay type: functional, Betapolyomavirus macacae;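 further: Confirmatory-stage PubChem screen for compounds that inhibit SV40 T antigen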
Large T antigen, sequence (P03070 whole entry): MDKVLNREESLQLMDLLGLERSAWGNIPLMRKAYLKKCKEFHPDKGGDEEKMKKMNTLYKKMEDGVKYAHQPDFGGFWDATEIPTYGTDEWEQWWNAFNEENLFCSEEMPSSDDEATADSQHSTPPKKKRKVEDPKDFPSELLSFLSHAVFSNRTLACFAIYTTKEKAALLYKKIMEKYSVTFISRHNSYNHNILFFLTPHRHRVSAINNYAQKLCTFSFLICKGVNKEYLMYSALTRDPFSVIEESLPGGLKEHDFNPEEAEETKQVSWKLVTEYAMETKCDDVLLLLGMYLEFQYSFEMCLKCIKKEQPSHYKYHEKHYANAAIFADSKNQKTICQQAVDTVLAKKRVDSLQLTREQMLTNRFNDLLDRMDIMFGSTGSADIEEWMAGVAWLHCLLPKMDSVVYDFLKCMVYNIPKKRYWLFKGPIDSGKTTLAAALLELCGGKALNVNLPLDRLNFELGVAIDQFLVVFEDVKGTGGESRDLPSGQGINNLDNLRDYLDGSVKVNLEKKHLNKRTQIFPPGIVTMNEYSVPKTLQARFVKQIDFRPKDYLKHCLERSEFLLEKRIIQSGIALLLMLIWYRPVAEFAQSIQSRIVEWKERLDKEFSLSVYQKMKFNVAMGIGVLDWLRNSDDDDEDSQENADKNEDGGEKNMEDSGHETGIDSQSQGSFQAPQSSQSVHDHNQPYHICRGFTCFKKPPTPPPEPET

Cytochrome P450 2C19 = Cytochrome P450 2C19 (Homo sapiens, UniProt P33261); assay: Cytochrome panel assay with activity outcomes. Panel member name: p450-cyp2c19 Compounds with AC50 equal or less than 10 uM are considered active; assay type: functional; details: read-out: AC50
Cytochrome P450 2C19, sequence (P33261 whole entry): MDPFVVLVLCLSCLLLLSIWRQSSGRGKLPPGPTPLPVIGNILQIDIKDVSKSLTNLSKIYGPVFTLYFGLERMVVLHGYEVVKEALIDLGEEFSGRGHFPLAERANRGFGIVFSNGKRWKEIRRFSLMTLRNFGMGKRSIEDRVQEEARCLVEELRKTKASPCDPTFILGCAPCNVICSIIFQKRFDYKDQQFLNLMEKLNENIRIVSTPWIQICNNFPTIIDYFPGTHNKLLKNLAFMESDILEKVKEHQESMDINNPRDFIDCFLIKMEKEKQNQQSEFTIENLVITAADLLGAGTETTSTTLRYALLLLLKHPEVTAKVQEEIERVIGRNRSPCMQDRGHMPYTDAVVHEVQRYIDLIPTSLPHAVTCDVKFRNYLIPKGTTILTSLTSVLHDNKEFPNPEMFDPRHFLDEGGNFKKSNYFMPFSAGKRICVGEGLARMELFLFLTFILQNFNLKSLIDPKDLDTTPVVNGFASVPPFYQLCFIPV

Cytochrome P450 2C9 = Cytochrome P450 2C9 (Homo sapiens, UniProt P11712)
Cytochrome P450 2C9, sequence (P11712 whole entry): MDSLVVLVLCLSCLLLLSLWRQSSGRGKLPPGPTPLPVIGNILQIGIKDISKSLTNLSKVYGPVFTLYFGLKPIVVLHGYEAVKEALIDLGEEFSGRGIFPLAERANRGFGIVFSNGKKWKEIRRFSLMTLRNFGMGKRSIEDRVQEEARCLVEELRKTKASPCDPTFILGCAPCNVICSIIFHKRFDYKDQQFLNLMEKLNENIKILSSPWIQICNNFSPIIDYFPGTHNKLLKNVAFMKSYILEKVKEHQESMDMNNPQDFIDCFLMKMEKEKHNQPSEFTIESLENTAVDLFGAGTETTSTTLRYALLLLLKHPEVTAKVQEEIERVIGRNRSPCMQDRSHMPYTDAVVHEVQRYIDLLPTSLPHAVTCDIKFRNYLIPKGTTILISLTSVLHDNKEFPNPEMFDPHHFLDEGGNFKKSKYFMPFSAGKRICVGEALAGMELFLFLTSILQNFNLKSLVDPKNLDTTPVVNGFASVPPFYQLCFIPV

[6] = viability loss of HPDE-C7K cells – cell-based, fluorescence, HTS, primary screen (AID 431); assay type: functional; details: Homo sapiens
[7] = HPDE-C7 pancreatic duct cell viability loss – fluorescence, HTS (AID 430); assay type: functional, cell-based; details: Homo sapiens
Cytochrome P450 2D6 = Cytochrome P450 2D6 (Homo sapiens, UniProt P10635);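 further: CYP2D6 member of a cytochrome P450 panel assay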
Cytochrome P450 2D6, sequence (P10635 whole entry): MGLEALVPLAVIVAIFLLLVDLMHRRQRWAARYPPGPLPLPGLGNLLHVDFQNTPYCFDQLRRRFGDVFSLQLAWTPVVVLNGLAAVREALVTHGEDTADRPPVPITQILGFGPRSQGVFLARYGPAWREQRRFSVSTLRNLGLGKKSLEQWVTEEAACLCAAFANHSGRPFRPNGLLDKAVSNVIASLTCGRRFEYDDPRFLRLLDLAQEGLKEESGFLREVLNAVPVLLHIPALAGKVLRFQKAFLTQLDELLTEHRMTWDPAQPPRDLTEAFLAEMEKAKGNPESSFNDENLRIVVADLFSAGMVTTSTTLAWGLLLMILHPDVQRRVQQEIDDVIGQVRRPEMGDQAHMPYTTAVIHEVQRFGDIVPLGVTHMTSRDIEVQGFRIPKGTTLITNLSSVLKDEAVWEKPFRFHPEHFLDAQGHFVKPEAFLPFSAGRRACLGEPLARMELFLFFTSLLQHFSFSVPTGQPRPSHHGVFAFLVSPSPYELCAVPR

Cytochrome P450 1A2 = target: T4, Cytochrome P450 1A2 (Homo sapiens, UniProt P05177);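 further: PubChem cytochrome P450 panel assay, CYP1A2 panel member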
T4 sequence (P05177 whole entry): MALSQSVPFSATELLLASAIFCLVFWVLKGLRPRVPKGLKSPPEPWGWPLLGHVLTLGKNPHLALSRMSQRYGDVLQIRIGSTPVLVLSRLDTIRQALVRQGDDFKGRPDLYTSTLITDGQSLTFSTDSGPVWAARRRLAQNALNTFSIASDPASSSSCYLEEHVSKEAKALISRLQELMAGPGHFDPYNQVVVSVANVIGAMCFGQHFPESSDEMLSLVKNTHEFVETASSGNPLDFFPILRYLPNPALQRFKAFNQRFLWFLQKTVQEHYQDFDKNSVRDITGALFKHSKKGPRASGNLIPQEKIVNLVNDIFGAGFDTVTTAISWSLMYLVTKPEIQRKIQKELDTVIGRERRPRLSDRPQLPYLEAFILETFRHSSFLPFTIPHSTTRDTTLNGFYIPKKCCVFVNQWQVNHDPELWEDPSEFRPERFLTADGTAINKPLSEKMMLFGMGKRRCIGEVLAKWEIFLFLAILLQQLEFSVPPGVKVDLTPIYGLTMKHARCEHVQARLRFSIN

cells [8] = assay type: functional, cell-based
cells [9] = assay type: functional, cell-based; remark: listed apart in the source
[10] = target: FAD-linked sulfhydryl oxidase ALR (Homo sapiens, UniProt P55789); assay: ALR-catalysed DTT oxidation blockers – biochemical, H2O2 detection, luminescence, cherry-pick, dose response (AID 493248)
FAD-linked sulfhydryl oxidase ALR, sequence (P55789 whole entry): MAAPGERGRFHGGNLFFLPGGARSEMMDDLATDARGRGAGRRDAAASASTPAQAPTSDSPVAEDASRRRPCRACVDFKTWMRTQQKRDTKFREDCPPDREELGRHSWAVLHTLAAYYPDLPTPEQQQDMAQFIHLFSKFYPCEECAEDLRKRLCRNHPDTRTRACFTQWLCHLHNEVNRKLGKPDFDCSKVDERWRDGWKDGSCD

[11] = target: T5, Rac GTPase-activating protein 1 (Homo sapiens, UniProt Q9H0H5); assay: blockers of MgcRacGAP-driven Rac1 GTP hydrolysis – biochemical, ADP Hunter fluorescence, primary and confirmatory, confirmation (AID 624330); assay type: functional
T5 sequence (Q9H0H5 whole entry): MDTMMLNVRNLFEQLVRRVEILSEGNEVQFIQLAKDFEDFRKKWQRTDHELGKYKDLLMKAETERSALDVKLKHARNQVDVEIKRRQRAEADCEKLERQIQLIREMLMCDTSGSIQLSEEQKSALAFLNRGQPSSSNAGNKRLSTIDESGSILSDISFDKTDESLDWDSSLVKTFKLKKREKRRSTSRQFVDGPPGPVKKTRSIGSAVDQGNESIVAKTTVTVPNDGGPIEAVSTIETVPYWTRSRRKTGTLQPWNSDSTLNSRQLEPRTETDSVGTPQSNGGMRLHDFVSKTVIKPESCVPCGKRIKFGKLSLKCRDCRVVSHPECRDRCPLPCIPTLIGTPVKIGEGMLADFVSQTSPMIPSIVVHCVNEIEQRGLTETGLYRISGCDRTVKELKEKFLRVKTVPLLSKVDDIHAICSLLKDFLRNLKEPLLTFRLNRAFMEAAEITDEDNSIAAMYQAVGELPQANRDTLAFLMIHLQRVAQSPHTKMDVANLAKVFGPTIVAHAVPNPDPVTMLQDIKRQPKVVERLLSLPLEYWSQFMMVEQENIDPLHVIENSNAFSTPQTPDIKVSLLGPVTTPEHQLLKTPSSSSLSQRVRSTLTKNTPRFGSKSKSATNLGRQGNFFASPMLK

Estrogen receptor beta, sequence (Q92731 whole entry): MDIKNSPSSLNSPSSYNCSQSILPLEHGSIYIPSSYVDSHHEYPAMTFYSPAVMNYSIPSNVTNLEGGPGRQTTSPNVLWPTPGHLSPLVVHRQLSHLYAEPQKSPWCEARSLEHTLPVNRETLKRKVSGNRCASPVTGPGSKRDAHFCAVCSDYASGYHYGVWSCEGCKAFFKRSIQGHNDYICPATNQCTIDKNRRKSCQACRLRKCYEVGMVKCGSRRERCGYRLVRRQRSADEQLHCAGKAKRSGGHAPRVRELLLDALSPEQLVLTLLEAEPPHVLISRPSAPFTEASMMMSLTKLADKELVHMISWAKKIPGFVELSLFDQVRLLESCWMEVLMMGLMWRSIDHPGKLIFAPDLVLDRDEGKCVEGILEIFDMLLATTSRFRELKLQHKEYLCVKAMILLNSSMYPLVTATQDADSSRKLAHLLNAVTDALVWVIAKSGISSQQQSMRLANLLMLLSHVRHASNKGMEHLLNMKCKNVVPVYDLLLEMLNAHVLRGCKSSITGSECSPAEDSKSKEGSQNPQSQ

SMILES: CCN(CC)C1=CC(=O)OC12CCCCC2
- IC50 (Estrogen receptor beta): > 50 µM (not active)

SMILES: CCC(C)N1CCC2(CC1)N=c1c3c(O)c4c(O)c(C)c5c(c4c1=N2)C(=O)[C@@](C)(OC=C[C@H](OC)[C@@H](C)[C@@H](OC(C)=O)[C@H](C)[C@H](O)[C@H](C)[C@@H](O)[C@@H](C)C=CC=C(C)C(=O)N3)O5 (stereo not given in full)
- AC50 (Escherichia coli [1]): 7.88 µM (active)

SMILES: Cc1ccc(Cn2c(C(CO)Nc3nc(-c4ccc(Cl)c([N+](=O)[O-])c4)cs3)nc3ccccc32)cc1 (stereo not given)
- CC50 [2]: 37.3 µM (active)

SMILES: O=C(Cn1c(=O)oc2ccccc21)N1CCN(c2ccccc2)CC1
- Ki (fMet-Leu-Phe receptor): > 66.7 µM (inactive)

SMILES: O=C1CCCC(O)=C1C(C#Cc1ccccc1)C1=C(O)CCCC1=O
- Ki (fMet-Leu-Phe receptor): > 66.7 µM (inactive)
- EC50 (Protein RecA): > 380 µM (inconclusive)
- IC50 [3]: > 64 µM (inactive)
- AC50 [4]: 6.78 µM (active)

SMILES: O=C(c1ccccc1)N1CCN(c2ccc([N+](=O)[O-])c(NCC3CCCO3)c2)CC1 (stereo not given)
- AC50 (Escherichia coli [5]): 105 µM (active)
- AC50 (Escherichia coli [1]): 40.2 µM (active)

SMILES: O=C(NC1CC1)C1CCN(C2CCN(C(=O)Cc3ccc(F)cc3)CC2)CC1
- AC50 (Escherichia coli [5]): 26.8 µM (active)
- AC50 (Escherichia coli [1]): 50 µM (active)

SMILES: Cc1ccc(/C=N\NC(=O)COc2ccc(C)cc2[N+](=O)[O-])cc1
- IC50 (Large T antigen): > 100 µM (active)

SMILES: CC(C)(C)c1nnc(NC(=O)NS(=O)(=O)c2ccccc2)s1
- AC50 (Cytochrome P450 2C19): 39.8 µM (inconclusive)
- AC50 (Escherichia coli [1]): 61.5 µM (active)
- AC50 (Cytochrome P450 2C9): 10 µM (inconclusive)

SMILES: CCOc1ccc2nc(N3CCC(C(=O)NC4CCCCC4)CC3)sc2c1
- CC50 [2]: > 40 µM (active)

SMILES: O=C(Nc1ccc(CN2CCOCC2)cc1)c1ccc(-c2ccc(Br)cc2)o1
- EC50 [6]: 9.91 µM (active)
- EC50 [7]: 13.9 µM (active)

SMILES: O=C1CC(c2ccc(S(=O)(=O)NCCOc3ccccc3)cc2)CN1 (stereo not given)
- IC50 (Estrogen receptor beta): > 50 µM (not active)

SMILES: COc1ccccc1CNC(=O)c1cc2c(C)nn(Cc3ccc(F)cc3)c2s1
- AC50 (Cytochrome P450 2D6): 22.4 µM (inconclusive)
- AC50 (Cytochrome P450 1A2): 31.6 µM (inconclusive)
- CC50 [2]: > 40 µM (active)

SMILES: CCOC(=O)c1sc(N(Cc2ccccc2)C(=O)COC(=O)c2ccc(O)cc2)nc1C
- EC50 (cells [8]): 175 µM (active)
- EC50 (cells [9]): > 350 µM (not active)

SMILES: Cc1cc(=O)oc2c(N)c(O)ccc12
- AC50 [10]: 1.32 µM (active)
- IC50 (Large T antigen): 0.77 µM (active)

SMILES: CC(C)c1ccc(S(=O)(=O)N2CCN(CCC(=O)Nc3ccc(N(C)C)cc3)CC2)cc1
- IC50 (Large T antigen): 15.1 µM (active)

SMILES: COc1ccc(OC)c(C(=O)c2nc3c(n2O)CCCCC3)c1
- Ki (fMet-Leu-Phe receptor): 49.6 µM (inactive)

SMILES: Cc1n[nH]c(-c2cccnc2)c1N=NN(C)C
- AC50 (Escherichia coli [5]): 0.628 µM (active)
- AC50 (Escherichia coli [1]): 2.15 µM (active)

SMILES: COc1ccccc1NC(=O)c1cc2ccccc2o/c1=N\O
- EC50 [6]: > 20 µM (not active)
- EC50 [7]: > 20 µM (not active)

SMILES: Clc1ccc(-c2csc3ncnc(N4CCc5ccccc5C4)c23)cc1
- CC50 [2]: > 40 µM (active)

SMILES: COc1cc(/C=N/NC(=S)NCCN2CCOCC2)ccc1O
- IC50 [11]: 19.9 µM (active)
- IC50 (Large T antigen): 6.95 µM (active)

SMILES: O=C(C1=C(O)C(=O)N(CCN2CCOCC2)C1c1ccccc1)c1cccs1 (stereo not given)
- Ki (fMet-Leu-Phe receptor): > 66.7 µM (inactive)

SMILES: COc1ccccc1/C=C/C(=O)NCC(=O)N/N=C/c1cc(Br)ccc1OC
- CC50 [2]: 27.5 µM (active)

SMILES: Cc1cccn2c(=O)c3cc(C(=O)N4CCC5(CC4)OCCO5)n(C)c3nc12
- EC50 [6]: 8.42 µM (active)
- EC50 [7]: 4.7 µM (active)
